Patent US20120280189A1, “PERFLU[…] GASEOUS DIELECTRICS” (priority 2010, published 2012)

Tested on: mice
Experiment: short-term inhalation test, acute toxicity
Assay type: in vivo
Conditions: mice exposed for four hours at 100,000 ppm in air

## O=C(C(F)(F)C(F)(F)F)C(F)(C(F)(F)F)C(F)(F)F [CF3CF2C(O)CF(CF3)2, 1,1,1,2,2,4,5,5,5-nonafluoro-4-trifluoromethyl-pentan-3-one]
  acute toxicity: low acute toxicity
